Reference: US10399966B2, “Compounds for treatment of trypanosomes and neurological pathogens and uses thereof” (The University of North Carolina at Chapel Hill, priority 2016, dated 2019)
Counter-ions that a name gives are not always drawn. Like-named read-outs stand apart in the source and are kept apart here. Values belong to the molecule of their own block, whether it stands above or below them.

How the values were obtained:
T. b. brucei = assay: In vitro antitrypanosomal activity against T. brucei (growth inhibition); format: cell-based, Trypanosoma brucei
Procedure: Primary hits from the screen were further characterized using a dose-response assay format to determine the EC50. In parallel, the cytotoxicities of these compounds were determined against a proliferating human hepatoma cell line (Huh7). […] SI—CC50/EC50). The final set of confirmed T. brucei hits consisted of 1035 inhibitors. […] In vitro antitrypanosomal activities against T. b. rhodesiense (STIB9000) and cytotoxicities against L6 rat myoblast cells were measured following established protocols (Orhan et al., Mar. Drugs 8:47 (2010). […] All wells including negative controls contained a final of 0.4% DMSO. After incubation of the plates at 37° C. for 48 h, the parasite density was determined using the CellTiter-Glo reagent (Promega), a firefly luciferase assay system that measures the amount of cellular ATP present in plate wells.

[1] = Distribution between mouse plasma and brain (brain penetration, ip); format: in vivo
Procedure: For distribution of compounds between mouse plasma and brain, mice (in groups of 3) were injected with test compounds (5 mg/kg ip) and sacrificed at the indicated times for collection of plasma and brain. Compound was dissolved in 0.4 mL of dosing solution (7% Tween 80, 3% ethanol, 5% DMSO, 0.9% saline) for ip injections. The brains were weighed and immediately frozen, then later homogenized in acetonitrile using a Dounce homogenizer. Prior to animal studies, recovery of test compound was carried out by adding a known amount to a mouse brain in the test extraction solvent and performing the homogenization. Compound recovery was determined by liquid chromatography/tandem mass spectrometry analysis relative to a standard compound amount. Blood was taken from the same mice in heparinized capillary tubes (Fisherbrand) for determination of compound concentration in plasma. The concentration of compound in the brain was obtained by dividing the moles of compound in the brain by the brain volume (obtained from the brain weight assuming 1 g is 1 mL) and correcting for the brain vasculature volume of 2.5% by weight.
Brain penetration studies (Table 14) were initially performed upon compounds 1, 2, and 3, but were expanded to include other compounds in order to explore the SAR of brain penetration. Groups of three mice were given single 5 mg/kg ip doses of the test compounds and were sacrificed 1 h post-dose.

Trypanosoma cruzi = assay: Efficacy against T. cruzi in vitro; format: cell-based; conditions: Trypanosoma cruzi; Table 16; read-out: T. Cruzi EC50
human hepatocytes HepG2 = assay: Cytotoxicity against HepG2 cells
[2] = system: human lymphocytes CRL-8155; assay: Cytotoxicity against CRL-8155 cells; conditions: human lymphoblasts
Procedure: The selectivity of each compound for the parasite over each of the two cell lines was calculated.

[3] = Trypanosoma brucei, Table 9, read-out: T. brucei EC50
[4] = Trypanosoma brucei, Table 9, read-out: T. brucei EC90
[5] = Table 14, mice, single ip dose 5 mg/kg, one hour post-dose, ± SEM of 3 mice (compound 3: 6 mice)
[6] = Trypanosoma brucei, Table 16, read-out: T. b. brucei EC50
[7] = Trypanosoma brucei, Table 17, read-out: T. b. brucei EC50
[8] = Trypanosoma brucei, Table 17, read-out: T. b. brucei EC90

Molecule: O=C(Nc1ccc2oc(-c3ccccc3)nc2c1)N1CCCC1 [Compound 8, 2-Phenyl-5-N-pyrrolidylamidobenzoxazole]
EC50 (T. b. brucei; Trypanosoma brucei, Table 7, read-out: T. brucei EC50): 5250 nM | EC50 (T. b. brucei; [3]): 5250 nM | EC90 (T. b. brucei; [4]): > 10000 nM | Brain/plasma ratio ([1]; Table 14, mice, single ip dose 5 mg/kg, one hour post-dose): 1.58 ± 0.484 | [compound]Brain [1, 5]: 0.397 ± 0.077 µM | [compound]Plasma [1, 5]: 0.270 ± 0.036 µM | Kp at 1 h ([1]; mouse, brain and plasma, intraperitoneal, 5 mg/kg, Table 7, groups of 3 mice, read-out: Average brain/plasma ratio): 1.58 ± 0.839 | concentration at 1 h ([1]; mouse, brain, intraperitoneal, 5 mg/kg, Table 7, groups of 3 mice, read-out: Average [compound] brain): 397 ± 130 nM | concentration at 1 h ([1]; mouse, plasma, intraperitoneal, 5 mg/kg, Table 7, groups of 3 mice, read-out: Average [compound] plasma): 270 ± 62 nM

Molecule: O=C(Nc1ccc2[nH]c(-c3ccccc3)nc2c1)c1ccccc1 [Compound 14, 5-Benzamido-2-phenylbenzimidazole hydrochloride]
EC50 (T. b. brucei; Trypanosoma brucei, read-out: T. brucei EC50): > 10000 nM | EC90 (T. b. brucei; Trypanosoma brucei, read-out: T. brucei EC90): > 10000 nM

Molecule: O=C(Nc1ccc2sc(-c3ccccc3)nc2c1)c1ccsc1 [Compound 19, 2-Phenyl-5-(3-thienylamido)benzothiazole]
EC50 (T. b. brucei; [3]): 1570 nM | EC90 (T. b. brucei; [4]): 2490 nM

Molecule: O=C(Nc1ccc2sc(-c3ccccc3)nc2c1)c1nccs1 [Compound 20, N-(2-Phenylbenzo[d]thiazol-5-yl)thiazole-2-carboxamide]
EC50 (T. b. brucei; [3]): 5860 nM | EC90 (T. b. brucei; [4]): > 10000 nM

Molecule: O=C(Nc1ccc2sc(-c3ccccc3)nc2c1)c1cscn1 [Compound 21, N-(2-Phenylbenzo[d]thiazol-5-yl)thiazole-4-carboxamide]
EC50 (T. b. brucei; [3]): > 10000 nM | EC90 (T. b. brucei; [4]): > 10000 nM

Molecule: O=C(Nc1ccc2sc(-c3cccc(F)c3)nc2c1)N1CCN(C(=O)Nc2ccc3sc(-c4cccc(F)c4)nc3c2)CC1 [Compound 31, N^1,N^4-Bis(2-(3-fluorophenyl)benzothiazol-5-yl)piperazine-1,4-dicarboxamide]
EC50 (T. b. brucei; [3]): > 20000 nM | EC90 (T. b. brucei; [4]): > 20000 nM

Molecule: NC1CCN(C(=O)Nc2ccc3sc(-c4ccc(F)c(F)c4)nc3c2)C1 (centres unmarked) [Compound 37, 2-(3,4-Difluorophenyl)-5-(3-amino-N-pyrrolidylamido)benzothiazole]
EC50 (T. b. brucei; [3]): 2320 nM | EC90 (T. b. brucei; [4]): 2720 nM

Molecule: O=C(Nc1ccn2cc(-c3cccc(F)c3F)nc2c1)N1CCCC1 [Compound 45, N-[2-(2,3-difluorophenyl)imidazo[1,2-a]pyridin-7-yl]pyrrolidine-1-carboxamide]
EC50 (T. b. brucei; [6]): 580 nM | EC50 (Trypanosoma cruzi): 1020 nM

Molecule: O=C(Nc1ccn2cc(-c3cccc(F)c3F)nc2c1)N1CCCCC1 [Compound 46, N-[2-(2,3-difluorophenyl)imidazo[1,2-a]pyridin-7-yl]piperidine-1-carboxamide]
EC50 (T. b. brucei; [6]): 720 nM | EC50 (Trypanosoma cruzi): 1000 nM

Molecule: O=C(Nc1ccn2cc(-c3ccc(F)c(F)c3)nc2n1)N1CC[C@H](F)C1 [Compound 54, (3S)-N-[2-(3,4-difluorophenyl)imidazo[1,2-a]pyrimidin-7-yl]-3-fluoropyrrolidine-1-carboxamide]
EC50 (T. b. brucei; [6]): > 20000 nM | EC50 (Trypanosoma cruzi): 2530 nM

Molecule: O=C(Nc1ccc2sc(-c3ccc(F)c(F)c3)nc2c1Br)N1CC[C@H](F)C1 [Compound 55]
EC50 (T. b. brucei; [7]): > 20000 nM | EC90 (T. b. brucei; [8]): > 20000 nM

Molecule: O=C(Nc1cnc2sc(-c3ccc(F)c(F)c3)nc2c1)N1CC[C@H](F)C1 [Compound 56, (S)-2-(3,4-Difluorophenyl)-5-(3-fluoro-N-pyrrolidylamido)-7-azabenzothiazole]
EC50 (T. b. brucei; [7]): 181 nM | EC90 (T. b. brucei; [8]): 364 nM

Molecule: O=C(Nc1ccc2sc(-c3ccc(F)c(F)c3)nc2c1)c1cnco1 [Compound 58, N-(2-(3,4-Difluorophenyl)benzo[d]thiazol-5-yl)oxazole-5-carboxamide]
EC50 (T. b. brucei; [7]): > 20000 nM | EC90 (T. b. brucei; [8]): > 20000 nM

Molecule: Cc1nc(C(=O)Nc2ccc3sc(-c4ccc(F)c(F)c4)nc3c2)c(C)o1 [Compound 60]
EC50 (T. b. brucei; [7]): > 20000 nM | EC90 (T. b. brucei; [8]): > 20000 nM

Molecule: O=C(Nc1ccc2sc(-c3ccc(F)c(F)c3)nc2c1)c1cncs1 [Compound 61]
EC50 (T. b. brucei; [7]): 3830 nM | EC90 (T. b. brucei; [8]): 7370 nM

Molecule: Cc1nc(C)c(C(=O)Nc2ccc3sc(-c4ccc(F)c(F)c4)nc3c2)s1 [Compound 62]
EC50 (T. b. brucei; [7]): > 20000 nM | EC90 (T. b. brucei; [8]): > 20000 nM

Molecule: N=C(N)c1ccc(OCCCCCOc2ccc(C(=N)N)cc2)cc1 [penth, Pentamidine, reference compound]
EC50 (T. b. brucei; Trypanosoma brucei, Table 11, read-out: T. b. brucei EC50): 1.05 nM | EC50 (human hepatocytes HepG2; Homo sapiens, HepG2, read-out: HepG2 EC50): > 100000 nM | EC90 (human hepatocytes HepG2; read-out: HepG2 EC90, concentration required to inhibit growth by 90%, human hepatocytes): > 100000 nM | EC50 ([2]; read-out: CRL-8155 EC50, concentration required to inhibit growth by 50%): 45400 nM | EC90 ([2]; read-out: CRL-8155 EC90, concentration required to inhibit growth by 90%): > 100000 nM

Molecule: N-(2-(3,4-Difluorophenyl)benzo[d]thiazol-5-yl)oxazole-4-carboxamide [Compound 57]
EC50 (T. b. brucei; Table 17, read-out: T. b. brucei EC50): > 20000 nM | EC90 (T. b. brucei; Table 17, read-out: T. b. brucei EC90): > 20000 nM

Continued, in another order:

EC50 (Trypanosoma cruzi): 390 nM
Molecule: O=C(Nc1ccn2cc(-c3ccc(F)c(F)c3)nc2c1)N1CC[C@H](F)C1 [Compound 41, (3S)-N-[2-(3,4-difluorophenyl)imidazo[1,2-a]pyridin-7-yl]-3-fluoropyrrolidine-1-carboxamide]
EC50 (T. b. brucei; [6]): 160 nM

EC50 (Trypanosoma cruzi): 2240 nM
Molecule: O=C(Nc1ccn2cc(-c3ccc(F)c(F)c3)nc2c1)N1CCCC1 [Compound 42, N-[2-(3,4-difluorophenyl)imidazo[1,2-a]pyridin-7-yl]pyrrolidine-1-carboxamide]
EC50 (T. b. brucei; [6]): 320 nM

EC50 (Trypanosoma cruzi): 2840 nM
Molecule: O=C(Nc1ccn2cc(-c3ccc(F)c(F)c3)nc2c1)N1CCCCC1 [Compound 43, N-[2-(3,4-difluorophenyl)imidazo[1,2-a]pyridin-7-yl]piperidine-1-carboxamide]
EC50 (T. b. brucei; [6]): 1200 nM

EC50 (Trypanosoma cruzi): 940 nM
Molecule: O=C(Nc1ccn2cc(-c3cccc(F)c3F)nc2c1)N1CC[C@H](F)C1 [Compound 44, (3S)-N-[2-(2,3-difluorophenyl)imidazo[1,2-a]pyridin-7-yl]-3-fluoropyrrolidine-1-carboxamide]
EC50 (T. b. brucei; [6]): 180 nM

EC50 (Trypanosoma cruzi): 710 nM
Molecule: O=C(Nc1ccn2cc(-c3cccc(F)c3)nc2c1)N1CC[C@H](F)C1 [Compound 47, (3S)-3-fluoro-N-[2-(3-fluorophenyl)imidazo[1,2-a]pyridin-7-yl]pyrrolidine-1-carboxamide]
EC50 (T. b. brucei; [6]): 160 nM

EC50 (Trypanosoma cruzi): 2950 nM
Molecule: O=C(Nc1ccn2cc(-c3cccc(F)c3)nc2c1)N1CCCC1 [Compound 48, N-[2-(3-fluorophenyl)imidazo[1,2-a]pyridin-7-yl]pyrrolidine-1-carboxamide]
EC50 (T. b. brucei; [6]): 730 nM

EC50 (Trypanosoma cruzi): 3100 nM
Molecule: O=C(Nc1ccn2cc(-c3cccc(F)c3)nc2c1)N1CCCCC1 [Compound 49, N-[2-(3-fluorophenyl)imidazo[1,2-a]pyridin-7-yl]piperidine-1-carboxamide]
EC50 (T. b. brucei; [6]): 970 nM

EC50 (Trypanosoma cruzi): 1080 nM
Molecule: O=C(Nc1ccn2cc(-c3ccccc3)nc2c1)N1CC[C@H](F)C1 [Compound 50, (3S)-3-fluoro-N-{2-phenylimidazo[1,2-a]pyridin-7-yl}pyrrolidine-1-carboxamide]
EC50 (T. b. brucei; [6]): 620 nM

EC50 (Trypanosoma cruzi): 4460 nM
Molecule: O=C(Nc1ccn2cc(-c3ccccc3)nc2c1)N1CCCC1 [Compound 51, N-{2-phenylimidazo[1,2-a]pyridin-7-yl}pyrrolidine-1-carboxamide]
EC50 (T. b. brucei; [6]): 2230 nM

EC50 (Trypanosoma cruzi): 2750 nM
Molecule: O=C(Nc1ccn2cc(-c3ccccc3)nc2c1)N1CCCCC1 [Compound 52, N-{2-phenylimidazo[1,2-a]pyridin-7-yl}piperidine-1-carboxamide]
EC50 (T. b. brucei; [6]): 2510 nM

EC50 (Trypanosoma cruzi): 90 nM
Molecule: O=C(Nc1cc2nc(-c3ccc(F)c(F)c3)cn2cn1)N1CC[C@H](F)C1 [Compound 53, (3S)-N-[2-(3,4-difluorophenyl)imidazo[1,2-c]pyrimidin-7-yl]-3-fluoropyrrolidine-1-carboxamide]
EC50 (T. b. brucei; [6]): 20 nM
